Legend:
HBV = assay: HepAD38 antiviral assay: reduction of viral product accumulation (virion DNA by qPCR, HBsAg/HBeAg by ELISA); type: cell-based; conditions: Hepatitis B virus, 120 h, HepAD38 cells, 50% reduction of viral product accumulation vs no drug controls, five days after compound addition
Experimental: Methods: HepAD38 cells are maintained as previously reported (Ladner et al, Antimicrob. Agents Chemother. 1997, […], 1715). Briefly, cells are passaged upon attaining confluency in DMEM/F12 media in the presence of 10% FBS, Penn/Strep, 250 μg/mL G418, and 1 μg/ml tetracycline. Novel compounds are screened by first washing cells three times with PBS to remove tetracycline, and plating in 96 well plates at 35,000 cells/well. Compounds dissolved in DMSO are then diluted 1:200 into wells containing cells. Five days after compound addition, material is harvested for analysis. For an extended 8 day analysis, cells are plated and treated as described above, but media and compound are refreshed on d2 and d5 post initial treatment.
On harvest day, virion DNA is obtained by lysing with Sidestep Lysis and Stabilization Buffer and then quantified via quantitative real time PCR. Commercially available ELISA kits are used to quantitate the viral proteins HBsAg (Alpco) or HbeAg (US Biological) by following the manufacturer's recommended protocol after diluting samples to match the linear range of their respective assays. Irrespective of readout, compound concentrations that reduce viral product accumulation in the cell lysates or supernatants by 50% relative to no drug controls (EC50) are reported; EC50 ranges are as follows: A<0.1 μM; B 0.1-1 μM; C>1 μM.

[1] = Compound toxicity, ATPLite total ATP levels; type: cell-based; conditions: human, HepG2 cells, 50% reduction of total ATP levels (ATPLite), three days after compound addition
Experimental: Compound toxicity is evaluated by seeding cells at 15,000 cells/well and treating with compound as described above.

| Compound | EC50 (HBV; class symbols) | CC50 at 3 days [1] | EC50 (HBV; given as numeric bound) |
| --- | --- | --- | --- |
| O=S(=O)(N[C@H]1CC2=C(c3cnn(C4CC4)c3)[C@H](c3ccc(F)cc3Cl)N=C(c3nccs3)N2C1)C1CC1 [Example 6] | < 100 nM | > 25000 nM | – |
| CS(=O)(=O)N[C@H]1CC2=C(c3cnn(C(F)F)c3)[C@H](c3ccc(F)cc3Cl)N=C(c3nccs3)N2C1 [Example 10] | < 100 nM | > 25000 nM | – |
| COC(=O)N[C@]1(CO)CC2=C(c3ccn(C(F)F)n3)[C@H](c3ccc(F)cc3Cl)N=C(c3nccs3)N2C1 [Example 61] | < 100 nM | > 25000 nM | – |
| COCCS(=O)(=O)N[C@H]1CC2=C(c3cnn(C(F)F)c3)[C@H](c3ccc(F)cc3Cl)N=C(c3nccs3)N2C1 [Example 57] | < 100 nM | > 25000 nM | – |
| O=S(=O)(N[C@H]1CC2=C(c3cnn(C(F)F)c3)[C@H](c3ccc(F)cc3Cl)N=C(c3nccs3)N2C1)C1CCOCC1 [Example 56] | < 100 nM | > 25000 nM | – |
| NS(=O)(=O)N[C@H]1CC2=C(c3cnn(C(F)F)c3)[C@H](c3ccc(F)cc3Cl)N=C(c3nccs3)N2C1 [Example 9] | < 100 nM | > 25000 nM | – |
| O=S(=O)(NC1CC1)N[C@H]1CC2=C(c3cnn(C(F)F)c3)[C@H](c3ccc(F)cc3Cl)N=C(c3nccs3)N2C1 [Example 12] | < 100 nM | 10000 to 25000 nM | – |
| CN(C)S(=O)(=O)N[C@H]1CC2=C(c3cnn(C(F)F)c3)[C@H](c3ccc(F)cc3Cl)N=C(c3nccs3)N2C1 [Example 13] | < 100 nM | > 25000 nM | – |
| O=S(=O)(N[C@H]1CC2=C(c3ccn(C4CC4)n3)[C@H](c3ccc(F)cc3Cl)N=C(c3nccs3)N2C1)C1CC1 [Example 3] | < 100 nM | > 25000 nM | – |
| O=S(=O)(N[C@H]1CC2=C(c3cnn(C(F)F)c3)[C@H](c3ccc(F)cc3Cl)N=C(c3nccs3)N2C1)C1CC1 [Example 1] | < 100 nM | > 25000 nM | – |
| CNS(=O)(=O)N[C@H]1CC2=C(c3cnn(C(F)F)c3)[C@H](c3ccc(F)cc3Cl)N=C(c3nccs3)N2C1 [Example 11] | < 100 nM | > 25000 nM | – |
| [N-]=[N+]=N[C@]1(CO)CC2=C(c3cnn(C(F)F)c3)[C@H](c3ccc(F)cc3Cl)N=C(c3nccs3)N2C1 [Example 50] | < 100 nM | – | – |
| O=C1N[C@@](CO)(CC2=C(c3ccn(C(F)F)n3)[C@H](c3ccc(F)cc3Cl)N=C(c3nccs3)N2)CO1 [Example 94] | < 100 nM | > 25000 nM | – |
| CCOC(=O)NC[C@H]1CN(CC2=C(c3ccn(C(F)F)n3)[C@H](c3ccc(F)cc3Cl)N=C(c3nccs3)N2)C(=O)O1 [Example 126] | – | – | > 400 nM |
| CS(=O)(=O)OC[C@@]1(N=[N+]=[N-])CC2=C(c3cnn(C(F)F)c3)[C@H](c3ccc(F)cc3Cl)N=C(c3nccs3)N2C1 [Example 51] | 100 to 1000 nM | – | – |
| O=S(=O)(NCC1CC2=C(c3cnn(C(F)F)c3)[C@H](c3ccc(F)cc3Cl)N=C(c3nccs3)N2C1)C1CC1 (some centres unmarked) [Example 33] | – | – | > 100 nM |
| CC(=O)OC[C@@]1(N=[N+]=[N-])CC2=C(c3cnn(C(F)F)c3)[C@H](c3ccc(F)cc3Cl)N=C(c3nccs3)N2C1 [Example 59] | < 100 nM | – | – |
| CCCCS(=O)(=O)N[C@H]1CC2=C(c3cnn(C(F)F)c3)[C@H](c3ccc(F)cc3Cl)N=C(c3nccs3)N2C1 [Example 23] | < 100 nM | – | – |
| O=S(=O)(N[C@H]1CC2=C(c3cc[nH]n3)[C@H](c3ccc(F)cc3Cl)N=C(c3nccs3)N2C1)C1CC1 [Example 4] | – | – | > 100 nM |
| COC(=O)N[C@]1(COC(=O)NCCC(=O)O)CC2=C(c3ccn(C(F)F)n3)[C@H](c3ccc(F)cc3Cl)N=C(c3nccs3)N2C1 [Example 79] | – | – | > 400 nM |
| CNC(=O)OC[C@@]1(NC(=O)OC)CC2=C(c3ccn(C(F)F)n3)[C@H](c3ccc(F)cc3Cl)N=C(c3nccs3)N2C1 [Example 71] | – | – | > 400 nM |
| O=S(=O)(N[C@H]1CC2=C(c3cnn(C(F)(F)F)c3)[C@H](c3ccc(F)cc3Cl)N=C(c3nccs3)N2C1)C1CC1 [Example 8] | < 100 nM | 10000 to 25000 nM | – |
| CN(C)C(=O)NCC1(F)CC2=C(c3cnn(C(F)F)c3)[C@H](c3ccc(F)cc3Cl)N=C(c3nccs3)N2C1 (some centres unmarked) [Example 44] | 100 to 1000 nM | – | – |
| OC[C@]1(O)CC2=C(c3ccn(C(F)F)n3)[C@H](c3ccc(F)cc3Cl)N=C(c3nccs3)N2C1 [Example 123] | – | – | > 400 nM |
| O=C[C@]1(CC2=C(c3ccn(C(F)F)n3)[C@H](c3ccc(F)cc3Cl)N=C(c3nccs3)N2)COC(=O)N1 [Example 95] | < 100 nM | – | – |
| CS(=O)(=O)NCC1(F)CC2=C(c3cnn(C(F)F)c3)[C@H](c3ccc(F)cc3Cl)N=C(c3nccs3)N2C1 (some centres unmarked) [Example 43] | 100 to 1000 nM | – | – |
| COC(=O)N[C@]1(C(=O)O)CC2=C(c3ccn(C(F)F)n3)[C@H](c3ccc(F)cc3Cl)N=C(c3nccs3)N2C1 [Example 73] | – | – | > 400 nM |
| COC(=O)CCNC(=O)OC[C@@]1(NC(=O)OC)CC2=C(c3ccn(C(F)F)n3)[C@H](c3ccc(F)cc3Cl)N=C(c3nccs3)N2C1 [Example 78] | – | – | > 400 nM |

Reference: US10723733B2, “Hepatitis B antiviral agents” (Enanta Pharmaceuticals, Inc., priority 2017, dated 2020)
